In patent US20230117034A1, “PYRAZOLOTRIAZINES” (Bayer Aktiengesellschaft, priority 2019, published 2023):
pIC50: −log10 of the molar value.

How the values were obtained:
CDK2/CycE = biological target: T1, CDK2/CycE (Homo sapiens, UniProt P24941); test: CDK2/CycE kinase assay (TR-FRET, 2 mM ATP); assay type: biochemical; settings: 2 mM ATP (high ATP); median; read-out: CDK2/CyclinE, 2 mM ATP (high ATP), IC50 (median)
T1 construct: purchased ProQinase GmbH (Freiburg, Germany); host or cells: insect cells (Sf9)
In short: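 GST-tagged human CDK2 and CycE from Sf9 cells, about 10 ng/ml, pre-incubated 15 min at 22 °C with compound in Tris/HCl pH 8.0 buffer. Reaction with 2 mM ATP and 0.75 µM biotinylated peptide for 25 min at 22 °C. Phospho-RB antibody TR-FRET (665/620 nm ratio) read after 1 h; data normalised to no-inhibitor and no-enzyme controls.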

[1] = tested on: CAL-120, human breast adenocarcinoma cells; test: Proliferation assay CAL-120 (crystal violet, 4 days); assay type: cell-based; settings: Homo sapiens, CAL-120, 96 h, CAL-120 cells, median, read-out: Prolif-CAL-120, IC50-[mol/l] (median)
In short: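 Following a 24 h attachment in 10% fetal calf serum medium, cells receive test substance over 0.01-10 µmol/L for 4 days. Dye retained by fixed cells is eluted and read at 595 nm; cell number change is referenced to day-0 and untreated wells.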

[2] = biological target: T2, CDK12 (nuclear staining in CAL-120 cells) (Homo sapiens, UniProt Q9NYV4); test: CDK12 nuclear protein level: immunofluorescence/high content analysis (CAL-120); assay type: cell-based; settings: for DC50: CAL-120 cells, 24 h, immunofluorescence, 50% reduction of nuclear CDK12 staining intensity, median, read-out: CDK12 degradation IF, DC50- [mol/l] (median); for (IC50 CDK12 high ATP) to (Degradation DC50 CDK12) ratio: ratio of IC50 CDK12 high ATP kinase assay to DC50 CDK12 degradation (IF, CAL-120)
T2 construct: endogenous in cells; host or cells: CAL-120 human breast cancer cells (DSMZ ACC 459)
In short: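 CAL-120 cells were treated with compound for 24 h at 37 °C, fixed with PFA and immunostained for CDK12. Nuclear CDK12 intensity was quantified by automated image analysis and normalized to DMSO and control. DC50 is the concentration giving 50% reduction of nuclear staining.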

T2 sequence (Q9NYV4 whole entry): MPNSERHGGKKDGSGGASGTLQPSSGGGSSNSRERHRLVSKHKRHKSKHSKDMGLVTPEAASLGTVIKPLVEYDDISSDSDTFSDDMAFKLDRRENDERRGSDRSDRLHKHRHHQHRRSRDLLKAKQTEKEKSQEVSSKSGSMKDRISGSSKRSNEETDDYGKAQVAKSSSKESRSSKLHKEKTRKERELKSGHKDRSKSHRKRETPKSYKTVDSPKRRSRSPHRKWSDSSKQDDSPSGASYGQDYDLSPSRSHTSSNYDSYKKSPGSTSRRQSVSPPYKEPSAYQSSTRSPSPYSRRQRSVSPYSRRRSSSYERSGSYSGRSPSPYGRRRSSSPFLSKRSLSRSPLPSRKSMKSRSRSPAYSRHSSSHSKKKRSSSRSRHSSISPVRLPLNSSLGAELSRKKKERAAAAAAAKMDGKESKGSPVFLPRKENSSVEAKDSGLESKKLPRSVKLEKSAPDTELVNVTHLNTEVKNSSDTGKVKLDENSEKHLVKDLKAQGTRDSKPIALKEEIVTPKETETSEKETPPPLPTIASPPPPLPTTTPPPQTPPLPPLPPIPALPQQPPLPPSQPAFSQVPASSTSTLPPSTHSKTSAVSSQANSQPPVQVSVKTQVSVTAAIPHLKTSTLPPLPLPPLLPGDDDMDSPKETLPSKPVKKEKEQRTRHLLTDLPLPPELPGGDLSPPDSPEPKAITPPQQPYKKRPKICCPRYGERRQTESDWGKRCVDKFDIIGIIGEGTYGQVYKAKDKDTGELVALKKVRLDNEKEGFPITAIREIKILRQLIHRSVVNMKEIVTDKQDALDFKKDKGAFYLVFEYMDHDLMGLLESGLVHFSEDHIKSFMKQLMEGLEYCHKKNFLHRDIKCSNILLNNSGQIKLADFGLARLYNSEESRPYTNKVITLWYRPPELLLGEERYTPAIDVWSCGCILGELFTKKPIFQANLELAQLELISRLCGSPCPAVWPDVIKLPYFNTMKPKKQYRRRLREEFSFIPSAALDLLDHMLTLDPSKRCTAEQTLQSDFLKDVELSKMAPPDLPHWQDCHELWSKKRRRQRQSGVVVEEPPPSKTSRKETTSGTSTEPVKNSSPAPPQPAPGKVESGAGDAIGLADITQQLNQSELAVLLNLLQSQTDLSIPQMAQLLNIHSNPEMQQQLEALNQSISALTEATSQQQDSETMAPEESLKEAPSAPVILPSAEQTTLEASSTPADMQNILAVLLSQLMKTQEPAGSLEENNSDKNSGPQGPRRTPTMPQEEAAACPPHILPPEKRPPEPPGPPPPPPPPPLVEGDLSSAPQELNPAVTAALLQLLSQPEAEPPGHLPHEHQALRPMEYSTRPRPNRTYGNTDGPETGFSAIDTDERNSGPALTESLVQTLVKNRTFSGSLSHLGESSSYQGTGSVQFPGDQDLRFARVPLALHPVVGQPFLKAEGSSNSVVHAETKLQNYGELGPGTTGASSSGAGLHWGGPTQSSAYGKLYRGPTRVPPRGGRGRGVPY
T2 sequence (O75909 whole entry partner): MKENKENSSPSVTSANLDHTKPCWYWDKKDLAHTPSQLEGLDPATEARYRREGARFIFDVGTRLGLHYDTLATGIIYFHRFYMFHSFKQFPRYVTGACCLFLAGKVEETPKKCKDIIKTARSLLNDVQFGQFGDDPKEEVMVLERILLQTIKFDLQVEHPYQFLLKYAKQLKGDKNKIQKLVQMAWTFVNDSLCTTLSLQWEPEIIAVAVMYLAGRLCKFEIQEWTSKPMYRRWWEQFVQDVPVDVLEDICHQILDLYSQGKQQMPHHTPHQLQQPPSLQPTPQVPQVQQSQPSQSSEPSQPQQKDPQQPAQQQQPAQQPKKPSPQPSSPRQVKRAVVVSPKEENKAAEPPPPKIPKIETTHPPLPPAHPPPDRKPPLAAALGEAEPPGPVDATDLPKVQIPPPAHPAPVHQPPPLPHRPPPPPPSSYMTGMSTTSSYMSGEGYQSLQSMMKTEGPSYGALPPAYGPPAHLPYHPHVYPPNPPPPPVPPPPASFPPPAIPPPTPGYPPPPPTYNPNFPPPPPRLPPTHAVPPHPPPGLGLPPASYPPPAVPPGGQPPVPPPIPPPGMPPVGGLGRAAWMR

Structure (SMILES) | pIC50 (CDK2/CycE) | pIC50 [1] | DC50 [2] [nM] | (IC50 CDK12 high ATP) to (Degradation DC50 CDK12) ratio [2]
Clc1cccc(-c2nnc(CNc3nc(N4CCOCC4)nc4c(Br)cnn34)[nH]2)c1 [Example 51, 8-bromo-N-{[5-(3-chlorophenyl)-4H-1,2,4-triazol-3-yl]methyl}-2-(morpholin-4-yl)pyrazolo[1,5-a][1,3,5]triazin-4-amine] | 5.79 | 8.03 | 7.81 | 222
Cc1cnn2c(NCc3nc4ccccc4[nH]3)nc(N3CC4CCC(C3)N4)nc12 [Example 401, N-[(1H-benzimidazol-2-yl)methyl]-2-(3,8-diazabicyclo[3.2.1]octan-3-yl)-8-methylpyrazolo[1,5-a][1,3,5]triazin-4-amine] | < 4.70 | 7.36 | 30.8 | >649
Brc1cnn2c(NCc3nc4ccccc4[nH]3)nc(N3CCCCC3)nc12 [Example 46, N-[(1H-benzimidazol-2-yl)methyl]-8-bromo-2-(piperidin-1-yl)pyrazolo[1,5-a][1,3,5]triazin-4-amine] | 5.73 | 6.62 | 18 | 186
C[C@@H]1COCCN1c1nc(NCc2nc3ccccc3[nH]2)n2ncc(Br)c2n1 [Example 56, N-[(1H-benzimidazol-2-yl)methyl]-8-bromo-2-[(3R)-3-methylmorpholin-4-yl]pyrazolo[1,5-a][1,3,5]triazin-4-amine] | 5.69 | 7.76 | 15.1 | 352
Brc1cnn2c(NCc3nc4ccccc4[nH]3)nc(OCC3CC3)nc12 [Example 408, N-[(1H-benzimidazol-2-yl)methyl]-8-bromo-2-(cyclopropylmethoxy)pyrazolo[1,5-a][1,3,5]triazin-4-amine] | < 4.71 | 6.60 | 56.8 | >352
N#Cc1cccc(-c2c[nH]c(CNc3nc(N4CCOCC4)nc4c(Br)cnn34)n2)c1 [Example 42, 3-[2-({[8-bromo-2-(morpholin-4-yl)pyrazolo[1,5-a][1,3,5]triazin-4-yl]amino}methyl)-1H-imidazol-4-yl]benzonitrile] | 5.99 | 8.75 | 1.25 | 324
Brc1cnn2c(NCc3nnc(-c4ccccn4)[nH]3)nc(N3CCOCC3)nc12 [Example 54, 8-bromo-2-(morpholin-4-yl)-N-{[5-(pyridin-2-yl)-4H-1,2,4-triazol-3-yl]methyl}pyrazolo[1,5-a][1,3,5]triazin-4-amine] | 5.72 | 7.27 | 37.8 | 150
Fc1ccc(-c2nnc(CNc3nc(N4CCOCC4)nc4c(Br)cnn34)[nH]2)c(F)c1 [Example 41, 8-bromo-N-{[5-(2,4-difluorophenyl)-4H-1,2,4-triazol-3-yl]methyl}-2-(morpholin-4-yl)pyrazolo[1,5-a][1,3,5]triazin-4-amine] | < 5.79 | 4.93 | 4.06 | 
COc1cccc2[nH]c(CNc3nc(N4CCOCC4)nc4c(-c5nccs5)cnn34)nc12 [Example 414, N-[(4-methoxy-1H-benzimidazol-2-yl)methyl]-2-(morpholin-4-yl)-8-(1,3-thiazol-2-yl)pyrazolo [1,5-a][1,3,5]triazin-4-amine] | < 4.70 | 7.09 | 32.5 | >176
Fc1ccc2[nH]c(CNc3nc(N4CCOCC4)nc4c(-c5nccs5)cnn34)nc2c1F [Example 413, N-[(4,5-difluoro-1H-benzimidazol-2-yl)methyl]-2-(morpholin-4-yl)-8-(1,3-thiazol-2-yl)pyrazolo [1,5-a][1,3,5]triazin-4-amine] | < 4.70 | 7.16 | 19.8 | >1012
Cc1cnn2c(NCc3nc4c(F)c(F)ccc4[nH]3)nc(N3CCN(C)CC3)nc12 [Example 394, N-[(4,5-difluoro-1H-benzimidazol-2-yl)methyl]-8-methyl-2-(4-methylpiperazin-1-yl)pyrazolo[1,5-a][1,3,5]triazin-4-amine] | < 4.70 | 8.36 | 5.65 | >3303

Other lines, results leading:

pIC50 (CDK2/CycE) | pIC50 [1] | DC50 [2] [nM] | (IC50 CDK12 high ATP) to (Degradation DC50 CDK12) ratio [2] | Structure (SMILES)
< 4.70 | 7.41 | 25.3 | >789 | COc1ccccc1-c1nnc(CNc2nc(N3CCN(C)CC3)nc3c(C4CC4(F)F)cnn23)[nH]1 (stereo not drawn) [Example 430, 8-(2,2-difluorocyclopropyl)-N-{[5-(2-methoxyphenyl)-4H-1,2,4-triazol-3-yl]methyl}-2-(4-methylpiperazin-1-yl)pyrazolo[1,5-a][1,3,5]triazin-4-amine]
5.80 | 8.15 | 3.39 | 829 | CCc1cnn2c(NCc3nc4ccccc4[nH]3)nc(N3CCOCC3)nc12 [Example 431, N-[(1H-benzimidazol-2-yl)methyl]-8-ethyl-2-(morpholin-4-yl)pyrazolo[1,5-a][1,3,5]triazin-4-amine]
5.28 | 7.36 | 14.7 | 127 | FC(F)(F)c1cnn2c(NCc3nnc(-c4ccccc4)[nH]3)nc(N3CCOCC3)nc12 [Example 427, 2-(morpholin-4-yl)-N-[(5-phenyl-4H-1,2,4-triazol-3-yl)methyl]-8-(trifluoromethyl)pyrazolo[1,5-a][1,3,5]triazin-4-amine]
< 4.70 | 7.10 | 38.7 | >517 | Cn1cc(-c2cnn3c(NCc4nc5cc(Cl)c(Cl)cc5[nH]4)nc(N4CCOCC4)nc23)cn1 [Example 419, N-[(5,6-dichloro-1H-benzimidazol-2-yl)methyl]-8-(1-methyl-1H-pyrazol-4-yl)-2-(morpholin-4-yl)pyrazolo[1,5-a][1,3,5]triazin-4-amine]
< 4.70 | 7.32 | 7.03 | >2847 | CN1CCN(c2nc(NCc3nc4ccccc4[nH]3)n3ncc(C4CC4(F)F)c3n2)CC1 (stereo not drawn) [Example 428, N-(1H-benzimidazol-2-ylmethyl)-8-(2,2-difluorocyclopropyl)-2-(4-methylpiperazin-1-yl)pyrazolo[1,5-a][1,3,5]triazin-4-amine]
4.81 | 7.83 | 7.88 | 1080 | FC(F)Cc1cnn2c(NCc3nc4ccccc4[nH]3)nc(N3CCOCC3)nc12.O=C(O)C(F)(F)F [Example 444, trifluoroacetic acid N-[(1H-benzimidazol-2-yl)methyl]-8-(2,2-difluoroethyl)-2-(morpholin-4-yl)pyrazolo[1,5-a][1,3,5]triazin-4-amine]
5.12 | 8.44 | 0.948 | 2425 | CCc1cnn2c(NCc3nc4c(F)c(F)ccc4[nH]3)nc(N3CCOCC3)nc12 [Example 432, N-[(4,5-difluoro-1H-benzimidazol-2-yl)methyl]-8-ethyl-2-(morpholin-4-yl)pyrazolo[1,5-a][1,3,5]triazin-4-amine]
< 4.70 | 7.35 | 138 | >57 | O=C(O)C(F)(F)F.c1ccc2[nH]c(CNc3nc(N4CCOCC4)nc4c(-c5ccnnc5)cnn34)nc2c1 [Example 438, trifluoroacetic acid N-[(1H-benzimidazol-2-yl)methyl]-2-(morpholin-4-yl)-8-(pyridazin-4-yl)pyrazolo[1,5-a][1,3,5]triazin-4-amine]
